Measured values taken from PubChem BioAssay AID330 (DTP/NCI, 2004).
Where “and” joins values, the source holds several entries; their conditions need not be identical. Equal values may be shown once. Inconclusive results and toxic doses are left out.

Tested on: P388 leukemia ip, CD2F1 mice, survival T/C
Experiment: NCI In Vivo Anticancer Drug Screen. Data for tumor model P388 Leukemia (intraperitoneal) in CD2F1 (CDF1) mice
Conditions: endpoint: median survival time, higher = longer survival
Method in brief: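 Mice carrying the transplanted tumor received test compound or vehicle. Survival was recorded in each group, and the value is the treated-group measurement divided by that of the vehicle-treated control group.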

[1] = dose: 100.0 mg/kg/injection, schedule: Q04DX003 (ip), vehicle: saline with Tween-80
[2] = dose: 50.0 mg/kg/injection, schedule: Q01DX005 (ip), vehicle: saline with Tween-80
[3] = dose: 200.0 mg/kg/injection, schedule: Q01DX005 (ip), vehicle: saline with Tween-80
[4] = dose: 100.0 mg/kg/injection, schedule: Q01DX005 (ip), vehicle: saline with Tween-80
[5] = dose: 60.0 mg/kg/injection, schedule: Q01DX005 (ip), vehicle: saline with Tween-80
[6] = dose: 120.0 mg/kg/injection, schedule: Q01DX005 (ip), vehicle: saline with Tween-80
[7] = dose: 240.0 mg/kg/injection, schedule: Q01DX005 (ip), vehicle: saline with Tween-80
[8] = dose: 25.0 mg/kg/injection, schedule: Q01DX009 (ip), vehicle: saline with Tween-80
[9] = dose: 50.0 mg/kg/injection, schedule: Q01DX009 (ip), vehicle: saline with Tween-80
[10] = dose: 100.0 mg/kg/injection, schedule: Q01DX009 (ip), vehicle: saline with Tween-80
[11] = dose: 200.0 mg/kg/injection, schedule: Q01DX009 (ip), vehicle: saline with Tween-80

O=C(O)CCc1nc(-c2ccccc2)ncc1C(=O)O
T/C [1]: 100 % of control | T/C (dose: 200.0 mg/kg/injection, schedule: Q04DX003 (ip), vehicle: saline with Tween-80): 100 % of control | T/C (dose: 400.0 mg/kg/injection, schedule: Q04DX003 (ip), vehicle: saline with Tween-80): 98 % of control

C(=N\Nc1nnc(-c2ccccc2)c(-c2ccccc2)n1)/c1cccnc1
T/C (dose: 12.5 mg/kg/injection, schedule: Q01DX005 (ip), vehicle: saline with Tween-80): 86 % of control | T/C (dose: 25.0 mg/kg/injection, schedule: Q01DX005 (ip), vehicle: saline with Tween-80): 96 % of control | T/C [2]: 89 % of control | T/C [3]: 90 % of control

c1cc2c3c(c1)nc(CCc1nc4cccc5c4n1CCC5)n3CCC2
T/C (dose: 25.0 mg/kg/injection, schedule: Q04DX003 (ip), vehicle: saline with Tween-80): 109 % of control | T/C (dose: 50.0 mg/kg/injection, schedule: Q04DX003 (ip), vehicle: saline with Tween-80): 86 % of control | T/C [1]: 86 % of control

CNC(C#N)C(C)F (stereo not given)
T/C (dose: 15.0 mg/kg/injection, schedule: Q01DX005 (ip), vehicle: saline): 98 % of control | T/C (dose: 30.0 mg/kg/injection, schedule: Q01DX005 (ip), vehicle: saline): 99 % of control | T/C (dose: 60.0 mg/kg/injection, schedule: Q01DX005 (ip), vehicle: saline): 99 % of control and 98 % of control

O=C(O)Cc1csc(=S)n1-c1ccccc1
T/C [2]: 97 % of control | T/C [4]: 102 % of control | T/C [3]: 90 % of control

COC(=O)C1(C)CCCC2(C)C3CCC4CC3(C=C4CO)CCC12 (stereo not given)
T/C (dose: 10.0 mg/kg/injection, schedule: Q01DX005 (ip), vehicle: Klucel (hydroxypropylcellulose) (HPC)): 108 % of control | T/C (dose: 20.0 mg/kg/injection, schedule: Q01DX005 (ip), vehicle: Klucel (hydroxypropylcellulose) (HPC)): 100 % of control | T/C (dose: 40.0 mg/kg/injection, schedule: Q01DX005 (ip), vehicle: Klucel (hydroxypropylcellulose) (HPC)): 100 % of control | T/C (dose: 80.0 mg/kg/injection, schedule: Q01DX005 (ip), vehicle: Klucel (hydroxypropylcellulose) (HPC)): 93 % of control

O=CCCOC1CCCCO1 (stereo not given)
T/C (dose: 50.0 mg/kg/injection, schedule: Q01DX009 (ip), vehicle: other): 116 % of control | T/C (dose: 100.0 mg/kg/injection, schedule: Q01DX009 (ip), vehicle: other): 110 % of control | T/C (dose: 200.0 mg/kg/injection, schedule: Q01DX009 (ip), vehicle: other): 104 % of control

CC(=O)Nc1ccccc1C(=O)C(=O)Nc1ccccc1C(=O)NN
T/C [5]: 106 % of control | T/C [6]: 89 % of control | T/C [7]: 87 % of control

O=C(N=Nc1c(O)[nH]c2ccccc12)C(=O)Nc1cccc(C(F)(F)F)c1
T/C (dose: 12.5 mg/kg/injection, schedule: Q01DX009 (ip), vehicle: saline with Tween-80): 92 % of control | T/C [8]: 89 % of control | T/C [9]: 86 % of control

O=C1C(=Cc2cccnc2)C(=O)c2ccccc21
T/C [5]: 106 % of control | T/C [6]: 111 % of control

CCC(=O)NC(Cc1cccc(F)c1)C(=O)O (stereo not given)
T/C (dose: 6.25 mg/kg/injection, schedule: Q01DX009 (ip), vehicle: saline): 112 % of control | T/C (dose: 12.5 mg/kg/injection, schedule: Q01DX009 (ip), vehicle: saline): 102 % of control

N=C(N)SCCSC(=N)N
T/C (dose: 25.0 mg/kg/injection, schedule: Q01DX009 (ip), vehicle: saline sonified): 90 % of control | T/C (dose: 50.0 mg/kg/injection, schedule: Q01DX009 (ip), vehicle: saline sonified): 109 % of control | T/C (dose: 100.0 mg/kg/injection, schedule: Q04DX002 (ip), vehicle: saline): 100 % of control | T/C (dose: 200.0 mg/kg/injection, schedule: Q04DX002 (ip), vehicle: saline): 100 % of control

CN(C)S(=O)(=O)CCNC(=O)N(CCCl)N=O
T/C (dose: 2.5 mg/kg/injection, schedule: Q01DX005 (ip), vehicle: saline): 100 % of control | T/C (dose: 5.0 mg/kg/injection, schedule: Q01DX005 (ip), vehicle: saline): 104 % of control | T/C (dose: 10.0 mg/kg/injection, schedule: Q01DX005 (ip), vehicle: saline): 119 % of control and 218 % of control | T/C (dose: 20.0 mg/kg/injection, schedule: Q01DX005 (ip), vehicle: saline): 203 % of control and 250 % of control

CCOC(=O)C(=O)Cc1nc2ccccc2nc1C
T/C [5]: 93 % of control | T/C [6]: 97 % of control

CC/C=c1/[nH]c(=O)/c(=C\c2ccc([N+](=O)[O-])cc2)[nH]c1=O
T/C (dose: 25.0 mg/kg/injection, schedule: Q01DX009 (ip), vehicle: Klucel (hydroxypropylcellulose) (HPC)): 90 % of control | T/C (dose: 50.0 mg/kg/injection, schedule: Q01DX009 (ip), vehicle: Klucel (hydroxypropylcellulose) (HPC)): 87 % of control and 91 % of control | T/C (dose: 100.0 mg/kg/injection, schedule: Q01DX009 (ip), vehicle: Klucel (hydroxypropylcellulose) (HPC)): 86 % of control | T/C (dose: 200.0 mg/kg/injection, schedule: Q01DX009 (ip), vehicle: Klucel (hydroxypropylcellulose) (HPC)): 94 % of control

O=c1[nH]cc(C(O)Cc2ccccc2)c(=O)[nH]1 (stereo not given)
T/C [10]: 104 % of control | T/C [11]: 100 % of control | T/C (dose: 400.0 mg/kg/injection, schedule: Q01DX009 (ip), vehicle: saline with Tween-80): 100 % of control

O=C(O)C(OC(=O)C(F)(F)F)C(F)(F)C(F)(F)C(F)(F)F (stereo not given)
T/C [5]: 95 % of control | T/C [6]: 89 % of control | T/C [7]: 99 % of control

O=C(CCN1C(=O)c2ccccc2C1=O)Nc1c(I)cc(I)c(C(=O)O)c1I
T/C [5]: 104 % of control | T/C [6]: 106 % of control | T/C [7]: 101 % of control

N/C(CCSc1ccccc1N=Cc1ccccc1O)=N/O
T/C (dose: 12.5 mg/kg/injection, schedule: Q01DX009 (ip), vehicle: olive oil, sesame oil, peanut oil): 102 % of control | T/C (dose: 25.0 mg/kg/injection, schedule: Q01DX009 (ip), vehicle: olive oil, sesame oil, peanut oil): 104 % of control | T/C (dose: 50.0 mg/kg/injection, schedule: Q01DX009 (ip), vehicle: olive oil, sesame oil, peanut oil): 104 % of control

CC(C)CCCN(CCCC(C)C)CC(O)c1cc2c(c3ccccc13)CCCC2 (stereo not given)
T/C [2]: 113 % of control | T/C [4]: 103 % of control | T/C [3]: 113 % of control

O=C1CC2(CCCCC2)CC(=O)N1c1ccc(O)c(CN(Cc2ccccc2)Cc2ccccc2)c1
T/C (dose: 100.0 mg/kg/injection, schedule: Q04DX003 (ip), vehicle: Klucel (hydroxypropylcellulose) (HPC)): 90 % of control | T/C (dose: 200.0 mg/kg/injection, schedule: Q04DX003 (ip), vehicle: Klucel (hydroxypropylcellulose) (HPC)): 92 % of control | T/C (dose: 400.0 mg/kg/injection, schedule: Q04DX003 (ip), vehicle: Klucel (hydroxypropylcellulose) (HPC)): 93 % of control

Cc1ccc(C(=O)NN2C(N)=NC(N)=NC2(C)C)cc1
T/C (dose: 50.0 mg/kg/injection, schedule: Q04DX003 (ip), vehicle: saline): 100 % of control | T/C (dose: 100.0 mg/kg/injection, schedule: Q04DX003 (ip), vehicle: saline): 105 % of control

Cc1[nH]c2c(ccc3c2ccc2c(=O)c(Cl)c(C)[nH]c23)c(=O)c1Cl
T/C [2]: 96 % of control | T/C [4]: 95 % of control | T/C [3]: 94 % of control

O=C(O)COc1cc2c(cc1Cc1ccc3c(c1)OCO3)OCO2
T/C (dose: 50.0 mg/kg/injection, schedule: Q01DX005 (ip), vehicle: Klucel (hydroxypropylcellulose) (HPC)): 99 % of control | T/C (dose: 100.0 mg/kg/injection, schedule: Q01DX005 (ip), vehicle: Klucel (hydroxypropylcellulose) (HPC)): 96 % of control | T/C (dose: 200.0 mg/kg/injection, schedule: Q01DX005 (ip), vehicle: Klucel (hydroxypropylcellulose) (HPC)): 97 % of control

CCCCCCC(=O)/C=C/c1ccc2c(c1)OCO2
T/C [9]: 96 % of control | T/C [10]: 102 % of control | T/C [11]: 91 % of control

CCCCCCC(=O)/C=C/c1cc(OC)c(OC)c(OC)c1
T/C [9]: 101 % of control | T/C [10]: 96 % of control | T/C [11]: 92 % of control

CSc1nc(NCc2ccc(Cl)cc2)c2[nH]c(C)nc2n1
T/C (dose: 0.2 mg/kg/injection, schedule: Q01DX009 (ip), vehicle: saline with Tween-80): 98 % of control and 101 % of control | T/C (dose: 0.39 mg/kg/injection, schedule: Q01DX009 (ip), vehicle: saline with Tween-80): 101 % of control and 94 % of control | T/C (dose: 0.78 mg/kg/injection, schedule: Q01DX009 (ip), vehicle: saline with Tween-80): 106 % of control and 93 % of control | T/C (dose: 1.56 mg/kg/injection, schedule: Q01DX009 (ip), vehicle: saline with Tween-80): 99 % of control and 95 % of control

O=C1CN(Cc2ccc3c(c2)OCO3)NO1
T/C [8]: 111 % of control | T/C [9]: 104 % of control and 108 % of control | T/C [10]: 101 % of control | T/C [11]: 119 % of control and 86 % of control

CSC1=NC=C(C#N)C2=NC(c3ccccc3)NN12 (stereo not given)
T/C [2]: 98 % of control | T/C [4]: 97 % of control | T/C [3]: 100 % of control
